Data as given in US20260207564A1, “DOSAGE REGIME OF ORFORGLIPRON FOR TREATING A SUBJECT WITH TYPE 2 DIABETES (T2D), OBESITY, OR OVERWEIGHT WITH AT LEAST ONE WEIGHT RELATED COMORBIDITY” (Eli Lilly and Company, priority 2022, published 2026).
Where two headings read alike, the source gives them in different places.

Experiments:
[1] = assay type: in vivo, human
Description: Two Phase 2 studies have evaluated the safety and efficacy of Compound 1a for the treatment of T2D and another for treatment of obesity or overweight with at least one weight related comorbidity.
The 36 and 45 mg cohorts were subdivided in a 36 mg-1 and 36 mg-2 as well as 45 mg-1 and 45 mg-2 respectively, as different starting doses, dose escalations and dose escalation steps were investigated in these subgroup cohorts (FIG. 4).
Eligible male or female participants were >18 years of age with T2D with a HbA1c 7.0% to 10.5% and a body mass index (BMI) of ≥23 kg/m2, treated with diet and exercise alone or with a stable dose of metformin and with a stable body weight (≤5% body weight gain and/or loss) for at least 3 months prior to screening/Visit 1.
The study period included a 2-week screening/lead in period and a 26-week treatment period. During the treatment period, doses were escalated for all treatment groups. The dose escalation period ranged from 4 to 12 weeks depending on dose group. The initial dose was 2 or 3 mg followed by additional escalation steps depending on assigned cohort (FIG. 4). […] All participants were provided healthy eating and exercise education by study personnel throughout the trial.
Key Safety and tolerability endpoints included the frequency of patient- and investigator-reported adverse events, rate and incidence of hypoglycaemia events (glucose <70 mg/dL [3.9 mmol/L] and ≥54 mg/dL [3.0 mmol/L], or glucose <54 mg/dL [3.0 mmol/L]), and change in safety laboratory parameters, electrocardiogram, and vital signs.
The estimand used for efficacy analyses was an “efficacy estimand”, representing the average treatment effect for the randomized population if the treatment was administered as intended, thus including data from all randomized participants who received at least one dose of study drug and excluding data after permanent discontinuation of study drug. All tests of treatment effects were conducted at a 2-sided alpha level of 0.05 without adjustment for multiple comparisons, and 2-sided 95% CIs were calculated.
Safety analyses were conducted by comparing safety of OFG with placebo and with dulaglutide irrespective of adherence to study drug. The safety analyses were conducted using the safety analysis set, which includes all randomized participants who received at least one dose of study drug. The results were presented in summary statistics, point estimates, and 95% confidence intervals along with p-values for treatment comparisons.

[2] = Phase 1 food effect study A, single 3 mg dose, healthy adults (Example 6); assay type: in vivo, human; conditions: for AUC(0-inf) / Cmax / half-life: human, in vivo, oral, 3 mg; for AUC(0-inf): read-out: AUC(0-∞), geometric LS mean (geometric CV %); for Cmax: read-out: Cmax, geometric LS mean (geometric CV %); for half-life: read-out: T1/2, geometric mean (range) (converted)
[3] = Phase 1 food effect study B, 16 mg daily dose reached by weekly escalation, healthy adults (Example 6); assay type: in vivo, human; conditions: for AUC(0-t): read-out: AUC(0-24), geometric LS mean (geometric CV %); for Cmax: read-out: Cmax, geometric LS mean (geometric CV %)
[4] = human, in vivo, oral, 16 mg, STUDY B - 16 mg (with titration), Fasted
[5] = human, in vivo, oral, 16 mg, STUDY B - 16 mg (with titration), Fed

In the case of `Cc1cc(-n2nc3c(c2-n2ccn(-c4ccc5c(cnn5C)c4F)c2=O)[C@H](C)N(C(=O)c2cc4cc([C@H]5CCOC(C)(C)C5)ccc4n2[C@@]2(c4noc(=O)[nH]4)C[C@@H]2C)CC3)cc(C)c1F` [OFG, 3-[(1S,2S)-1-[5-[(4S)-2,2-dimethyloxan-4-yl]-2-[(4S)-2-(4-fluoro-3,5-dimethylphenyl)-3-[3-(4-fluoro-1-methylindazol-5-yl)-2-oxoimidazol-1-yl]-4-methyl-6,7-dihydro-4H-pyrazolo[4,3-c]pyridine-5-carbonyl]indol-1-yl]-2-methylcyclopropyl]-4H-1,2,4-oxadiazol-5-one, 0.5 Ca hydrate], the “percentage of patients who attained an HbA1c of 7% or less” value ([1]; 26 weeks, across OFG dose groups) was 65.2% to 95.8, the “most common adverse events” value ([1]; in vivo) was “gastrointestinal, mild to moderate in severity” and the “pulse rate changes from baseline” value ([1]; in vivo) was “+3.0 to +6.1 bpm”. For the same compound, the “systolic or diastolic blood pressure compared with dulaglutide or placebo” value ([1]; in vivo) was “no statistically significant differences”, the fasting glucose ([1]; versus placebo) was “significant improvements versus placebo” and the “mean changes from baseline in body weight” value (shortened to “mean changes from baseline”) ([1]; week 26, OFG 3 mg) was -3.7 kg. The “body weight ETD versus dulaglutide” value ([1]; week 26, OFG 12 mg) was -2.6 kg, the “body weight ETD versus placebo” value ([1]; week 26, OFG 12 mg) was -4.3 kg and the “mean changes from baseline” value ([1]; week 26, OFG 12 mg) was -6.5 kg. The “body weight ETD versus dulaglutide” value ([1]; week 26, OFG 24 mg) was -5.9 kg, the body weight ETD versus placebo ([1]; week 26, OFG 24 mg) was -7.6 kg and the “mean changes from baseline” value ([1]; week 26, OFG 24 mg) was -9.7 kg. The “body weight ETD versus dulaglutide” value ([1]; week 26, OFG 36 mg) was -5.7 kg, the “body weight ETD versus placebo” value ([1]; week 26, OFG 36 mg) was -7.4 kg and the “mean changes from baseline” value ([1]; week 26, OFG 36 mg) was -9.5 kg. The “body weight ETD versus dulaglutide” value ([1]; week 26, OFG 45 mg) was -6.2 kg, the “body weight ETD versus placebo” value ([1]; week 26, OFG 45 mg) was -7.9 kg and the “mean changes from baseline” value ([1]; week 26, OFG 45 mg) was -10.1 kg. For the same compound, the “mean change in HbA1c from baseline” value ([1]; week 26, across OFG dose groups) was −0.77% to −1.67, the “Tmax, median (range)” value ([2]; STUDY A - 3 mg, Fasted) was 8.0 (4.0-24.0) h and the AUC(0-inf) ([2]; STUDY A - 3 mg, Fasted) was 362 ng·h/mL. The Cmax ([2]; STUDY A - 3 mg, Fasted) was 13.4 ng/mL, the half-life ([2]; STUDY A - 3 mg, Fasted) was 29.5 h and the AUC(0-inf) ([2]; STUDY A - 3 mg, Fed) was 260 ng·h/mL. For the same compound, the Cmax ([2]; STUDY A - 3 mg, Fed) was 10.1 ng/mL, the half-life ([2]; STUDY A - 3 mg, Fed) was 27.9 h and the “Tmax and T½ with or without food” value ([2]; study A) was “similar”. For the same compound, the “treatment emergent adverse events (TEAEs) severity” value ([2]; study A) was “mild”, the “AUC(0-∞) lower when administered with food” value ([2]; study A, single 3 mg dose) was 24% and the “Cmax lower in the fed state” value ([2]; study A, single 3 mg dose, fed vs fasted) was 23%. The “Tmax, median (range)” value ([3]; STUDY B - 16 mg (with titration), Fasted) was 8.0 (4.0-16.0) h, the “Tmax, median (range)” value ([3]; STUDY B - 16 mg (with titration), Fed) was 8.0 (4.0-24.0) h and the AUC(0-t) [3, 4] was 1200 ng·h/mL. It also gave a Cmax [3, 4] of 80.5 ng/mL, a half-life ([3]; human, in vivo, oral, 16 mg, STUDY B - 16 mg (with titration), Fasted, read-out: T1/2, geometric mean (range) (converted)) of 26 h and an AUC(0-t) [3, 5] of 1050 ng·h/mL. It also gave a Cmax [3, 5] of 67.5 ng/mL, a TEAE decreased appetite ([3]; study B) of 69.7% and a TEAE nausea ([3]; study B) of 48.5%. The TEAE vomiting ([3]; study B) was 45.5%, the “TEAEs occurrence over dosing” value ([3]; study B) was “occurred most often with the starting dose and decreased with dose escalation” and the “Tmax and T½ with or without food” value ([3]; study B) was “similar”. For the same compound, the “treatment emergent adverse events (TEAEs) severity” value ([3]; study B) was “mild”, the “AUC(0-24) lower when administered with food” value ([3]; study B, 16 mg daily dose) was 18% and the “Cmax lower in the fed state” value ([3]; study B, 16 mg daily dose, fed vs fasted) was 21%.
